Reference: the NIST ThermoML archive (doi:10.1016/j.jct.2018.08.013)
Several values for one entry are separate records, joined by “and”; a condition that tells them apart may be missing. Identical values can stand only once. Numbers after ± are expanded uncertainties.

Assays:
[1] = xn = mol fraction of the nth substance listed; conditions: 298 K; 100 kPa; Crystal of intercomponent compound 1; X-ray diffraction; x2 = 0.451
[2] = specific heat capacity at constant pressure; xn = mol fraction of the nth substance listed; conditions: 100 kPa, Crystal of intercomponent compound 1, x2 = 0.451

[S] [sulfur] + [In]
Conditions | mass density [kg/m3]
[1] | 5211 ± 300

[2]
Conditions | specific heat capacity
14.16 K, relaxation calorimetry | 10.46 ± 1 J/K/kg
14.18 K, relaxation calorimetry | 10.51 ± 1 J/K/kg
16.17 K, relaxation calorimetry | 15.52 ± 1.2 J/K/kg
16.18 K, relaxation calorimetry | 15.54 ± 1.2 J/K/kg
16.19 K, relaxation calorimetry | 15.59 ± 1.2 J/K/kg
18.2 K, relaxation calorimetry | 21.32 ± 1.5 J/K/kg and 21.36 ± 1.5 J/K/kg
20.21 K, relaxation calorimetry | 27.47 ± 1.7 J/K/kg and 27.51 ± 1.7 J/K/kg
20.22 K, relaxation calorimetry | 27.57 ± 1.7 J/K/kg
22.23 K, relaxation calorimetry | 33.81 ± 1.9 J/K/kg and 33.8 ± 1.9 J/K/kg
22.24 K, relaxation calorimetry | 33.85 ± 1.9 J/K/kg
24.25 K, relaxation calorimetry | 40.26 ± 2.1 J/K/kg and 40.2 ± 2.1 J/K/kg
24.26 K, relaxation calorimetry | 40.28 ± 2.1 J/K/kg
26.26 K, relaxation calorimetry | 46.66 ± 2.3 J/K/kg and 46.68 ± 2.3 J/K/kg
26.27 K, relaxation calorimetry | 46.58 ± 2.3 J/K/kg
28.28 K, relaxation calorimetry | 52.75 ± 2.5 J/K/kg and 52.77 ± 2.5 J/K/kg and 52.81 ± 2.5 J/K/kg
30.3 K, relaxation calorimetry | 58.62 ± 2.6 J/K/kg and 58.63 ± 2.6 J/K/kg
30.31 K, relaxation calorimetry | 58.71 ± 2.6 J/K/kg
35.34 K, relaxation calorimetry | 72.92 ± 3.1 J/K/kg
35.36 K, relaxation calorimetry | 72.92 ± 3.1 J/K/kg
40.38 K, relaxation calorimetry | 85.85 ± 3.6 J/K/kg
45.42 K, relaxation calorimetry | 97.7 ± 4.1 J/K/kg
45.43 K, relaxation calorimetry | 97.63 ± 4.1 J/K/kg
45.44 K, relaxation calorimetry | 97.63 ± 4.1 J/K/kg
50.46 K, relaxation calorimetry | 109.27 ± 4.5 J/K/kg and 109.41 ± 4.6 J/K/kg
50.48 K, relaxation calorimetry | 109.27 ± 4.5 J/K/kg
55.5 K, relaxation calorimetry | 120.03 ± 5 J/K/kg and 120.1 ± 5 J/K/kg
55.51 K, relaxation calorimetry | 120.17 ± 5 J/K/kg
60.54 K, relaxation calorimetry | 130.38 ± 5.4 J/K/kg and 130.24 ± 5.4 J/K/kg
65.58 K, relaxation calorimetry | 140.8 ± 5.8 J/K/kg and 140.86 ± 5.8 J/K/kg
65.59 K, relaxation calorimetry | 140.8 ± 5.8 J/K/kg
70.62 K, relaxation calorimetry | 151.01 ± 6.2 J/K/kg and 151.08 ± 6.2 J/K/kg
70.64 K, relaxation calorimetry | 150.94 ± 6.2 J/K/kg
75.66 K, relaxation calorimetry | 160.88 ± 6.6 J/K/kg and 160.47 ± 6.5 J/K/kg and 160.68 ± 6.6 J/K/kg
80.69 K, relaxation calorimetry | 170.82 ± 7 J/K/kg and 170.68 ± 6.9 J/K/kg and 170.62 ± 6.9 J/K/kg
85.73 K, relaxation calorimetry | 180.22 ± 7.4 J/K/kg and 180.15 ± 7.4 J/K/kg and 179.74 ± 7.4 J/K/kg
90.75 K, relaxation calorimetry | 189.47 ± 7.8 J/K/kg
90.77 K, relaxation calorimetry | 189.13 ± 7.7 J/K/kg and 188.59 ± 7.7 J/K/kg
95.78 K, relaxation calorimetry | 197.58 ± 8 J/K/kg
95.79 K, relaxation calorimetry | 197.17 ± 8 J/K/kg and 197.1 ± 8 J/K/kg
100.82 K, relaxation calorimetry | 204.93 ± 8.4 J/K/kg
100.83 K, relaxation calorimetry | 204.59 ± 8.3 J/K/kg
100.92 K, relaxation calorimetry | 204.18 ± 8.3 J/K/kg
105.86 K, relaxation calorimetry | 212.83 ± 8.6 J/K/kg
105.87 K, relaxation calorimetry | 213.24 ± 8.7 J/K/kg and 212.76 ± 8.6 J/K/kg
113.82 K, relaxation calorimetry | 223.18 ± 9.1 J/K/kg and 223.24 ± 9.1 J/K/kg and 222.9 ± 9.1 J/K/kg
121.72 K, relaxation calorimetry | 233.18 ± 9.5 J/K/kg
121.75 K, relaxation calorimetry | 233.18 ± 9.5 J/K/kg
121.76 K, relaxation calorimetry | 233.12 ± 9.5 J/K/kg
129.68 K, relaxation calorimetry | 241.97 ± 9.8 J/K/kg
129.69 K, relaxation calorimetry | 242.31 ± 9.9 J/K/kg and 241.97 ± 9.8 J/K/kg
137.6 K, relaxation calorimetry | 249.86 ± 10 J/K/kg
137.62 K, relaxation calorimetry | 250 ± 10 J/K/kg
145.51 K, relaxation calorimetry | 257.22 ± 10 J/K/kg
145.55 K, relaxation calorimetry | 257.15 ± 10 J/K/kg and 256.88 ± 10 J/K/kg
153.44 K, relaxation calorimetry | 264.09 ± 11 J/K/kg
153.45 K, relaxation calorimetry | 264.23 ± 11 J/K/kg
153.46 K, relaxation calorimetry | 264.03 ± 11 J/K/kg
161.36 K, relaxation calorimetry | 269.88 ± 11 J/K/kg
161.38 K, relaxation calorimetry | 270.02 ± 11 J/K/kg
161.39 K, relaxation calorimetry | 270.08 ± 11 J/K/kg
169.28 K, relaxation calorimetry | 275.6 ± 11 J/K/kg
169.31 K, relaxation calorimetry | 275.74 ± 11 J/K/kg
169.32 K, relaxation calorimetry | 275.46 ± 11 J/K/kg
177.2 K, relaxation calorimetry | 280.36 ± 11 J/K/kg
177.24 K, relaxation calorimetry | 280.23 ± 11 J/K/kg and 280.3 ± 11 J/K/kg
185.14 K, relaxation calorimetry | 284.52 ± 12 J/K/kg
185.17 K, relaxation calorimetry | 284.79 ± 12 J/K/kg and 284.86 ± 12 J/K/kg
193.05 K, relaxation calorimetry | 288.4 ± 12 J/K/kg
193.08 K, relaxation calorimetry | 288.74 ± 12 J/K/kg
193.09 K, relaxation calorimetry | 289.08 ± 12 J/K/kg
200.97 K, relaxation calorimetry | 292.69 ± 12 J/K/kg
201 K, relaxation calorimetry | 292.89 ± 12 J/K/kg
201.01 K, relaxation calorimetry | 293.03 ± 12 J/K/kg
208.88 K, relaxation calorimetry | 296.02 ± 12 J/K/kg
208.92 K, relaxation calorimetry | 295.96 ± 12 J/K/kg and 296.16 ± 12 J/K/kg
216.78 K, relaxation calorimetry | 299.56 ± 12 J/K/kg
216.82 K, relaxation calorimetry | 299.7 ± 12 J/K/kg
216.83 K, relaxation calorimetry | 299.7 ± 12 J/K/kg
224.7 K, relaxation calorimetry | 302.56 ± 12 J/K/kg
224.74 K, relaxation calorimetry | 303.1 ± 12 J/K/kg
224.75 K, relaxation calorimetry | 302.7 ± 12 J/K/kg
232.6 K, relaxation calorimetry | 305.01 ± 12 J/K/kg
232.66 K, relaxation calorimetry | 305.01 ± 12 J/K/kg and 305.22 ± 12 J/K/kg
240.51 K, relaxation calorimetry | 306.71 ± 12 J/K/kg
240.54 K, relaxation calorimetry | 307.67 ± 13 J/K/kg and 307.53 ± 12 J/K/kg
248.4 K, relaxation calorimetry | 309.84 ± 13 J/K/kg
248.45 K, relaxation calorimetry | 310.12 ± 13 J/K/kg
248.48 K, relaxation calorimetry | 308.89 ± 13 J/K/kg
256.34 K, relaxation calorimetry | 310.59 ± 13 J/K/kg
256.4 K, relaxation calorimetry | 310.73 ± 13 J/K/kg and 310.66 ± 13 J/K/kg
262.24 K, Extra sensitive DSC | 315.9 ± 12 J/K/kg
264.24 K, relaxation calorimetry | 312.43 ± 13 J/K/kg
264.3 K, relaxation calorimetry | 312.98 ± 13 J/K/kg
264.31 K, relaxation calorimetry | 312.98 ± 13 J/K/kg
265 K, Extra sensitive DSC | 316.72 ± 12 J/K/kg
270 K, Extra sensitive DSC | 317.74 ± 12 J/K/kg
275 K, Extra sensitive DSC | 319.31 ± 12 J/K/kg
280 K, Extra sensitive DSC | 320.94 ± 12 J/K/kg
285 K, Extra sensitive DSC | 322.44 ± 12 J/K/kg
290 K, Extra sensitive DSC | 323.94 ± 13 J/K/kg
295 K, Extra sensitive DSC | 325.44 ± 13 J/K/kg
300 K, Extra sensitive DSC | 326.59 ± 13 J/K/kg
305 K, Extra sensitive DSC | 328.02 ± 13 J/K/kg
310 K, Extra sensitive DSC | 329.18 ± 13 J/K/kg
315 K, Extra sensitive DSC | 329.93 ± 13 J/K/kg
320 K, Extra sensitive DSC | 330.54 ± 13 J/K/kg
325 K, Extra sensitive DSC | 331.29 ± 13 J/K/kg
330 K, Extra sensitive DSC | 332.31 ± 13 J/K/kg
335 K, Extra sensitive DSC | 333.13 ± 13 J/K/kg
337.86 K, Extra sensitive DSC | 333.4 ± 13 J/K/kg
340.38 K, Extra sensitive DSC | 332.92 ± 13 J/K/kg
343.85 K, Extra sensitive DSC | 333.47 ± 13 J/K/kg
345.58 K, Extra sensitive DSC | 333.74 ± 13 J/K/kg
348.19 K, Extra sensitive DSC | 335.31 ± 13 J/K/kg
350.79 K, Extra sensitive DSC | 335.51 ± 13 J/K/kg
353.39 K, Extra sensitive DSC | 335.99 ± 13 J/K/kg
355.13 K, Extra sensitive DSC | 336.53 ± 13 J/K/kg
356 K, Extra sensitive DSC | 335.78 ± 13 J/K/kg
358.6 K, Extra sensitive DSC | 336.4 ± 13 J/K/kg
